The results in this text go back to ChEMBL document CHEMBL1909046, “DrugMatrix in vitro pharmacology data”.

For data set [1], the target named is 5-hydroxytryptamine receptor 4 (Cavia porcellus, UniProt O70528). Type of data set: cell membranes, Dunkin-Hartley, Striatum, Membrane. Note: in other assays of this panel Not Active means under 50% inhibition at 10 µM.
In data set [2] the target is Cytochrome P450 2C19 (Homo sapiens, UniProt P33261). As to conditions: bti-tn-5b1-4. Note: in other assays of this panel Not Active means under 50% inhibition at 10 µM.
Chain of Cytochrome P450 2C19 (P33261 whole entry): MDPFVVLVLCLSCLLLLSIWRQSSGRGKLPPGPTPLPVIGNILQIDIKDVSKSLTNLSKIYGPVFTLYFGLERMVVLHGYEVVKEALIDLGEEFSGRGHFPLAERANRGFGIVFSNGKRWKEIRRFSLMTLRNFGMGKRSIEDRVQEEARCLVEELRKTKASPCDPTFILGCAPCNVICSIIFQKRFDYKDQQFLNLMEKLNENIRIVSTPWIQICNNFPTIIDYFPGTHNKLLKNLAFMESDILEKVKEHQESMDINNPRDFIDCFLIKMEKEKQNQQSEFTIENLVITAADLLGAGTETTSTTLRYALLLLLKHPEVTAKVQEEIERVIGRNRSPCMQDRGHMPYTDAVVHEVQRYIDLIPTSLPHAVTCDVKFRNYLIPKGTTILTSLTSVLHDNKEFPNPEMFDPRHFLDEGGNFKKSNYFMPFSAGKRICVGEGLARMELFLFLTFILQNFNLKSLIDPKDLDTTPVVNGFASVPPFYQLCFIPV
Data set [3] can be described thus: DRUGMATRIX: Phosphodiesterase PDE3 enzyme inhibition (substrate: [3H]cAMP + cAMP). Type of data set: tissue-based, Homo sapiens. As to conditions: platelet; Not Active = under 50% inhibition at 10 µM.
Data set [4] has as its target Tyrosine-protein kinase Fyn (Homo sapiens, UniProt P06241). As to the kind of experiment: biochemical. Type of data set: cell-based, Insect cells.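 Note: enzymatic inhibition of Fyn kinase activity measured with Poly(Glu:Tyr) as the phosphorylation substrate; in other assays of this panel Not Active means under 50% inhibition at 10 µM.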
The nature of data set [5]: DRUGMATRIX: Purinergic P2X radioligand binding (ligand: [3H] alpha, beta-Methylene-ATP). Type of data set: cell membranes, Oryctolagus cuniculus, New Zealand albino, Urinary bladder, Membrane. Conditions: Not Active = under 50% inhibition at 10 µM.
Data set [6] concerns the target Beta-3 adrenergic receptor (Homo sapiens, UniProt P13945). As to the kind of experiment: DRUGMATRIX: Adrenergic beta3 radioligand binding (ligand: [125I] Cyanopindolol). Type of data set: cell membranes, HEK293, Membrane. Conditions: hek293; Not Active = under 50% inhibition at 10 µM.
Data set [7] in a line: DRUGMATRIX: Glutamate, Kainate radioligand binding (ligand: [3H] Kainic acid). Type of data set: cell membranes, Rattus norvegicus, Wistar, Brain, Membrane. As to conditions: Not Active = under 50% inhibition at 10 µM.
For data set [8], the target named is Histamine H2 receptor (Homo sapiens, UniProt P25021). Type of data set: cell membranes, CHO-K1, Membrane. As to conditions: cho-k1. Note: in other assays of this panel Not Active means under 50% inhibition at 10 µM.
Chain of Histamine H2 receptor (P25021 whole entry): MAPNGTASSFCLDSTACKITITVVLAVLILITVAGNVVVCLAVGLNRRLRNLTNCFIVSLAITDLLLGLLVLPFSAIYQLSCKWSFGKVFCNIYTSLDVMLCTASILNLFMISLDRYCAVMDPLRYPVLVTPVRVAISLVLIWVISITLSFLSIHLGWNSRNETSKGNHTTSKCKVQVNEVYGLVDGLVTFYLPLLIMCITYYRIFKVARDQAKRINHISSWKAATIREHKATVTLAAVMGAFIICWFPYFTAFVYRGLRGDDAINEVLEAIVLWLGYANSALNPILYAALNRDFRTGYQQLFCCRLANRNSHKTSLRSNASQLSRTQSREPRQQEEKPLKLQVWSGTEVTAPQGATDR
The target in data set [9] is C-C chemokine receptor type 2 (Homo sapiens, UniProt P41597). Type of data set: cell membranes, CHO-K1, Membrane. Conditions: cho-k1. Note: in other assays of this panel Not Active means under 50% inhibition at 10 µM.
Chain of C-C chemokine receptor type 2 (P41597 whole entry): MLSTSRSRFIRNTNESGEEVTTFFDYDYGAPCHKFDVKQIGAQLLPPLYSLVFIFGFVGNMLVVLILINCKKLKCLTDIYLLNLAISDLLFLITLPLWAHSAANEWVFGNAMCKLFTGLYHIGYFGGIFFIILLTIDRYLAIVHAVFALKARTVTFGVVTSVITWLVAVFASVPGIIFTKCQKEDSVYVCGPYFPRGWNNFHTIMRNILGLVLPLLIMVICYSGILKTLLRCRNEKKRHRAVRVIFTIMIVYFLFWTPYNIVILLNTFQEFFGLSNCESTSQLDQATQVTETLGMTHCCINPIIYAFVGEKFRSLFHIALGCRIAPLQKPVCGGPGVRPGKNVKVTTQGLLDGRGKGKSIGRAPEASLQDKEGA
The target in data set [10] is T1, Substance-K receptor (Homo sapiens, UniProt P21452). Note: in other assays of this panel Not Active means under 50% inhibition at 10 µM.
T1 sequence (P21452 whole entry): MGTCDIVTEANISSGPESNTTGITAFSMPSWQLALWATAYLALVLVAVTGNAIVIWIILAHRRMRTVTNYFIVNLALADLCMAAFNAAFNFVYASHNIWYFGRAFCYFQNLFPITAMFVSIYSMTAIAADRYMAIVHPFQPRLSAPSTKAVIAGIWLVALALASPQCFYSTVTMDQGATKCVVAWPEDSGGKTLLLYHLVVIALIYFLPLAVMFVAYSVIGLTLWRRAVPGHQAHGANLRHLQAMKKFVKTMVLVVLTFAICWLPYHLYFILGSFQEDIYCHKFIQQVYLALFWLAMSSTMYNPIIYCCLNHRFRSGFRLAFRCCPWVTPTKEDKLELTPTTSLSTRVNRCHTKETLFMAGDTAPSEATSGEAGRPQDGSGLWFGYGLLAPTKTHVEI
Type of data set: cell membranes, CHO, Membrane. Conditions: cho.

A short description of data set [11]: DRUGMATRIX: Sigma2 radioligand binding (ligand: [3H] Ifenprodil). Type of data set: cell membranes, Rattus norvegicus, Wistar, Brain, Membrane. Conditions: Not Active = under 50% inhibition at 10 µM.
Data set [12] has as its target T2, Leukotriene C4 synthase (Cavia porcellus, UniProt A6XA80).
T2 sequence (A6XA80 whole entry): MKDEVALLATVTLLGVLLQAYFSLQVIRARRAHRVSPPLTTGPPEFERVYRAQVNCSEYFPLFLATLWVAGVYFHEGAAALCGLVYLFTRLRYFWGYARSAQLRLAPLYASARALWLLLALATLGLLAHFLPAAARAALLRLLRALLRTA
As to the kind of experiment: biochemical. Type of data set: tissue-based, Lung.

Data set [13] has as its target T3, Muscarinic acetylcholine receptor M4 (Homo sapiens, UniProt P08173). Note: in other assays of this panel Not Active means under 50% inhibition at 10 µM.
T3 sequence (P08173 whole entry): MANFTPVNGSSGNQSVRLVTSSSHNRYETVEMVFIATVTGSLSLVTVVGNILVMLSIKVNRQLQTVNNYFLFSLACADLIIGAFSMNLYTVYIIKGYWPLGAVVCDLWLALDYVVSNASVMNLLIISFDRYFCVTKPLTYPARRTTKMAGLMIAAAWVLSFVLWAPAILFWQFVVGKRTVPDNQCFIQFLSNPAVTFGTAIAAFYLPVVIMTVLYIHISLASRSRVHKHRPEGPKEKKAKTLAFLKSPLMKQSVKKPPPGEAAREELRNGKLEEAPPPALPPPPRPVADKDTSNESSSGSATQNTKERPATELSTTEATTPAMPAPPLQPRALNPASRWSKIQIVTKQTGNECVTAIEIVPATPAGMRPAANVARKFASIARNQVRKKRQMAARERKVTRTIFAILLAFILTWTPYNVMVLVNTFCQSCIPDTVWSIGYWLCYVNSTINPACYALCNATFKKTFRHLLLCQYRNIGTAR
Type of data set: cell membranes, CHO-K1, Membrane. As to conditions: cho-k1.

For data set [14], the target named is T4, D(4) dopamine receptor (Homo sapiens, UniProt P21917).
T4 sequence (P21917 whole entry): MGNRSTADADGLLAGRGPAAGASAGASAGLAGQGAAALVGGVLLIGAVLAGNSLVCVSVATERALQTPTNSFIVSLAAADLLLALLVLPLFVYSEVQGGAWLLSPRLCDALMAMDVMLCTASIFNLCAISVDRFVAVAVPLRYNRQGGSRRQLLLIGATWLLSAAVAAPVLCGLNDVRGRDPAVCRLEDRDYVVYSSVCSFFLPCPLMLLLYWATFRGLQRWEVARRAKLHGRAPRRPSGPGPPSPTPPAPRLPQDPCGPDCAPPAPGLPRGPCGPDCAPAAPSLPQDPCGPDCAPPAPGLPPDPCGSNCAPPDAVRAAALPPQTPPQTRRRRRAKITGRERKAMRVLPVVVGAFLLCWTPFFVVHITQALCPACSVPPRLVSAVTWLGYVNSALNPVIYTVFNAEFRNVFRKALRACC
As to the kind of experiment: DRUGMATRIX: Dopamine D4.2 radioligand binding (ligand: [3H] Spiperone). Type of data set: cell membranes, CHO-K1, Membrane. As to conditions: cho-k1; Not Active = under 50% inhibition at 10 µM.

In data set [15] the target is Sodium-dependent dopamine transporter (Homo sapiens, UniProt Q01959). As to the kind of experiment: DRUGMATRIX: Dopamine Transporter radioligand binding (ligand: [125I] RTI-55). Conditions: cho-k1; Not Active = under 50% inhibition at 10 µM. Type of data set: cell membranes, CHO-K1, Membrane.
Chain of Sodium-dependent dopamine transporter (Q01959 whole entry): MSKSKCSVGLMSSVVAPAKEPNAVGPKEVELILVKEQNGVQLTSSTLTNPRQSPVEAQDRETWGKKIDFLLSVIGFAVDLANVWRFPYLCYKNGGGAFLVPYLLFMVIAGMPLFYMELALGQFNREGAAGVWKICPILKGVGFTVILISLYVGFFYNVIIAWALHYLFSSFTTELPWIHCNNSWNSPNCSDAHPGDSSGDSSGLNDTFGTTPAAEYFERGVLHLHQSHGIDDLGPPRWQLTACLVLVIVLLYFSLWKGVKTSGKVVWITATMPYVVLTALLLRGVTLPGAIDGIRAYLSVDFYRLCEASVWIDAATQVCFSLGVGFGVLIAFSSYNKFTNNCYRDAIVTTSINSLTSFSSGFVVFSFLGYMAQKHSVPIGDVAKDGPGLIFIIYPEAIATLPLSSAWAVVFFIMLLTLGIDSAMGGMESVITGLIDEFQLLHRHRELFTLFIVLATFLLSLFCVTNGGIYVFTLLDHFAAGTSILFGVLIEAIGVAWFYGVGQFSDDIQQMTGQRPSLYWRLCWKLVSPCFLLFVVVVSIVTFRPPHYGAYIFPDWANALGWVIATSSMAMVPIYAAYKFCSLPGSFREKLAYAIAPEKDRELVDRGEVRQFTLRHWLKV
The nature of data set [16]: DRUGMATRIX: Glutamate, NMDA, Phencyclidine radioligand binding (ligand: [3H] TCP). Type of data set: cell membranes, Rattus norvegicus, Wistar, Cerebral cortex, Membrane. As to conditions: Not Active = under 50% inhibition at 10 µM.
Data set [17] has as its target T5, C-C chemokine receptor type 4 (Homo sapiens, UniProt P51679). Note: in other assays of this panel Not Active means under 50% inhibition at 10 µM.
T5 sequence (P51679 whole entry): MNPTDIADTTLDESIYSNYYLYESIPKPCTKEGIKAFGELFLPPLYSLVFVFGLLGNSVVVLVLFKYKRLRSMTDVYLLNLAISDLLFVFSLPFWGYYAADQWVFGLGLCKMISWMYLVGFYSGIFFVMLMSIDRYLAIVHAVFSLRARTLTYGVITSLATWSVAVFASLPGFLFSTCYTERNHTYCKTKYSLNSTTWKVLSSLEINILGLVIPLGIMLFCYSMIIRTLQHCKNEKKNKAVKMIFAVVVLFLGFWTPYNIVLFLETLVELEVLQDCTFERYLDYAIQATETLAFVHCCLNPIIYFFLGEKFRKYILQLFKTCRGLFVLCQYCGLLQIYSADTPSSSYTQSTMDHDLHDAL
Type of data set: cell membranes, Membrane. Conditions: chem-1.

SMILES strings stand for the structures.

Chain of Tyrosine-protein kinase Fyn (P06241 whole entry): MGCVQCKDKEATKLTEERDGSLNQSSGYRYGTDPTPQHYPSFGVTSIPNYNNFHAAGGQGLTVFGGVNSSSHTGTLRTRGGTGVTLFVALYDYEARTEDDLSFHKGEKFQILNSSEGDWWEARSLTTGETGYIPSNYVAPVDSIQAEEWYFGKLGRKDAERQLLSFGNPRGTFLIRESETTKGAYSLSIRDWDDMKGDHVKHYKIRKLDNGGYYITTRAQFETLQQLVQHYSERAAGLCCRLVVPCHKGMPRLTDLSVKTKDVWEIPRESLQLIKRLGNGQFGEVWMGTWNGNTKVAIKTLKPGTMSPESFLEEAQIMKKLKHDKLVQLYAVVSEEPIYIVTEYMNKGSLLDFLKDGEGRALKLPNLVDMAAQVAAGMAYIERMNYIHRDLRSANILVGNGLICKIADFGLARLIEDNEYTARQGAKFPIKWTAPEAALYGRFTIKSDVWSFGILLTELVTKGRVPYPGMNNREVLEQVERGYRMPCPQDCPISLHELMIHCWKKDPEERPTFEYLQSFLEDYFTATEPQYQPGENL
Chain of 5-hydroxytryptamine receptor 4 (O70528 whole entry): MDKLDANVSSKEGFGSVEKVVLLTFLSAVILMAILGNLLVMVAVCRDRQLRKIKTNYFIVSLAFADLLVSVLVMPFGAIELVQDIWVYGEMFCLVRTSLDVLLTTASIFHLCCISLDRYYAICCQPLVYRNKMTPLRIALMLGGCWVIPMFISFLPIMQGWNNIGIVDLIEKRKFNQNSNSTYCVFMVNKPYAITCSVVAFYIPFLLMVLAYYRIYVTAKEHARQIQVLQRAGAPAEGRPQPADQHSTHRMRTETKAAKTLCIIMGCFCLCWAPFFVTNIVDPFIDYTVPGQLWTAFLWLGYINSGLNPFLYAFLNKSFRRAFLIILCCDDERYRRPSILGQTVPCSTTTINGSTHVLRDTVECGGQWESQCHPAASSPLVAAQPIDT
Chain of Beta-3 adrenergic receptor (P13945 whole entry): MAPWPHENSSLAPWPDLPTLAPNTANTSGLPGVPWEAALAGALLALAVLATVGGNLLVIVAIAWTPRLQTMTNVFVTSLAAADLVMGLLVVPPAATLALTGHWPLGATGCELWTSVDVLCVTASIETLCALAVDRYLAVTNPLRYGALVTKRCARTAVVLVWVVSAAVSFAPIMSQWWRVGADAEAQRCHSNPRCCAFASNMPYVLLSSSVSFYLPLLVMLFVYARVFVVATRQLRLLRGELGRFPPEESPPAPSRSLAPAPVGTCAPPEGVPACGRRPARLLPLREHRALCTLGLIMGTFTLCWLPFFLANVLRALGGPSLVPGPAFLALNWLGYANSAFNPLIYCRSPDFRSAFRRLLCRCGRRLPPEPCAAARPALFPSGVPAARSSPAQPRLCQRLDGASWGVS

With `C=C1CC[C@H](O)C/C1=C/C=C1\CCC[C@]2(C)[C@@H]([C@H](C)/C=C/[C@H](C)C(C)C)CC[C@@H]12` [ERGOCALCIFEROL], the 50% inhibitory concentration (IC50) entry in [1], in data set [2], in [3], in data set [4] (insect cells), in data set [5] and in data set [6] was “Not Active” in each case. Besides, the IC50 result in [7], in data set [8], in [9], in data set [10], in data set [11] and in data set [12] was “Not Active” in each case. For the same compound, the IC50 result in data set [13], in [14], in data set [15], in [16] and in data set [17] was “Not Active” throughout. Moreover, the Ki result in [2], in data set [3], in data set [5], in data set [7], in data set [11] and in data set [16] was “Not Active” throughout.
With `CN1C[C@H](C(=O)N[C@]2(C)O[C@@]3(O)[C@@H]4CCCN4C(=O)[C@H](Cc4ccccc4)N3C2=O)C=C2c3cccc4[nH]cc(c34)C[C@H]21` [ERGOTAMINE], the IC50 (commonly the concentration that inhibits the measured activity by half) in data set [1] (read-out: IC50) was 1580 nM; in [2], “Not Active”; in [3], “Not Active”; in data set [4] (read-out: IC50), 3160 nM; in [5] it was “Not Active”; in data set [6], “Not Active”. Also, the IC50 entry in data set [7], in [8], in [9], in data set [10], in data set [11] and in data set [12] was “Not Active” throughout. For the same compound, the IC50 entry in data set [13], in [14], in data set [15], in data set [16] and in [17] was “Not Active” throughout. The inhibitory constant (Ki) (usually the equilibrium dissociation constant of an inhibitor or competing ligand from its target) in data set [1] (read-out: Ki) was 264 nM; in data set [2], “Not Active”; in data set [3] it was “Not Active”; in data set [5], “Not Active”; in data set [7] it was “Not Active”; in data set [11], “Not Active”. In addition, the Ki entry in data set [16] is given as “Not Active”.
For `CCc1cccc2c3c([nH]c12)C(CC)(CC(=O)O)OCC3` (stereo unspecified) [ETODOLAC], the half-inhibitory concentration (IC50) entry in [1], in [2], in data set [3], in [4] (insect cells), in [5] and in [6] was “Not Active” each time. Besides, the IC50 entry in [7], in [8], in data set [9], in data set [10], in [11] and in data set [12] was “Not Active” each time. For the same compound, the IC50 result in data set [13], in [14], in data set [15], in data set [16] and in data set [17] was “Not Active” throughout. Besides, the Ki entry in data set [2], in [3], in [5], in data set [7], in data set [11] and in data set [16] was “Not Active” in each case.
Turning to `Cc1c(-c2ccccc2)oc2c(C(=O)OCCN3CCCCC3)cccc2c1=O` [FLAVOXATE], the IC50 result in [1], in data set [2], in data set [3], in data set [4] (insect cells), in data set [5] and in data set [6] was “Not Active” throughout. Moreover, the IC50 result in data set [7], in [8], in data set [9], in data set [10], in data set [11] and in [12] was “Not Active” in each case. For the same compound, the IC50 result in data set [13], in data set [14], in data set [15], in data set [16] and in [17] was “Not Active” each time. The Ki entry in data set [2], in data set [3], in data set [5], in data set [7], in data set [11] and in data set [16] was “Not Active” in each case.
For `CC(=O)[C@@]1(O)CC[C@H]2[C@@H]3C[C@H](C)C4=CC(=O)C=C[C@]4(C)[C@@]3(F)[C@@H](O)C[C@@]21C` [FLUOROMETHOLONE], the IC50 entry in data set [1], in data set [2], in [3], in data set [4] (insect cells), in data set [5] and in [6] was “Not Active” in each case. Also, the IC50 result in [7], in [8], in data set [9], in data set [10], in [11] and in data set [12] was “Not Active” in each case. Further, the concentration for half-maximal inhibition (IC50) entry in [13], in [14], in data set [15], in [16] and in [17] was “Not Active” throughout. Moreover, the Ki result in data set [2], in data set [3], in data set [5], in data set [7], in data set [11] and in data set [16] was “Not Active” each time.
